{"source": "patent US20170128426A1", "about": "“NOVEL DOSAGE AND FORMULATION” (Almirall, S.A., priority 2012, published 2017)", "assay": "Solubility of aclidinium bromide in solvents", "assay_type": "physicochemical", "from_the_text": "Aclidinium bromide is a white powder with a molecular formula of C26H30NO4S2Br and a molecular mass of 564.56. […] This compound is known to be a long-acting anticholinergic useful in the treatment of respiratory diseases."}
{"smiles": "O=C(O[C@H]1C[N+]2(CCCOc3ccccc3)CCC1CC2)C(O)(c1cccs1)c1cccs1.[Br-]", "note": "[Aclidinium bromide, 3(R)-(2-hydroxy-2,2-dithien-2-ylacetoxy)-1-(3-phenoxypropyl)-1-azoniabicyclo[2.2.2]octane bromide]", "values": [{"measurement": "solubility in ethanol", "setting": "ethanol", "result": "very slightly soluble"}, {"measurement": "solubility in methanol", "setting": "methanol", "result": "sparingly soluble"}, {"measurement": "solubility in water", "setting": "water", "result": "very slightly soluble"}]}
